Experiments:
Assay type in all cases: cell-based
[1] = test system: ATCC9027 strain (Pseudomonas aeruginosa); test: Broth microdilution, antibacterial activity of the compound used alone
Description: (§1) The broth microdilution method was used to test the antibacterial effects of the compounds of the present invention against various Gram-negative bacterial strains when used alone.

[2] = test system: ATCC13883 strain (Klebsiella pneumoniae); test: as above
Description: as §1

[3] = test system: ATCC19606 strain (Acinetobacter baumannii); test: as above
Description: as §1

[4] = test system: ATCC25922 strain (Escherichia coli); test: as above
Description: as §1

[5] = test system: ATCC9027 strain (Pseudomonas aeruginosa); test: Checkerboard antibacterial synergistic activity test with polymyxin E (FIC); design: key: FIC≤0.5 synergy; 0.5–1 additive; 1–2 indifferent; ≥2 antagonism; conditions: combined with polymyxin E
Method in brief: (§2)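 First, two-fold series of polymyxin E (16–0.015 μg/ml) and compound (256–4 μg/ml) were made in MH broth. Next, combinations went into a 96-well grid, bacterial liquid was added, and plates sat at 37° C. for 16 h. Finally, FIC was computed and classed (≤0.5 synergistic).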

[6] = test system: ATCC13883 strain (Klebsiella pneumoniae); test: as above; design: key: FIC≤0.5 synergy; 0.5–1 additive; 1–2 indifferent; ≥2 antagonism; conditions: combined with polymyxin E
Method in brief: as §2

[7] = test system: ATCC19606 strain (Acinetobacter baumannii); test: as above; design: key: FIC≤0.5 synergy; 0.5–1 additive; 1–2 indifferent; ≥2 antagonism; conditions: combined with polymyxin E
Method in brief: as §2

[8] = test system: ATCC25922 strain (Escherichia coli); test: as above; design: key: FIC≤0.5 synergy; 0.5–1 additive; 1–2 indifferent; ≥2 antagonism; conditions: combined with polymyxin E
Method in brief: as §2

| Structure (SMILES) | Antibacterial activity of the compound of Formula I, ATCC9027 [1] [µg/mL] | Antibacterial activity of the compound of Formula I, ATCC13883 [2] [µg/mL] | Antibacterial activity of the compound of Formula I, ATCC19606 [3] [µg/mL] | Antibacterial activity of the compound of Formula I, ATCC25922 [4] [µg/mL] | Synergistic activity (FIC value) ATCC9027 [5] | Synergistic activity (FIC value) ATCC13883 [6] | Synergistic activity (FIC value) ATCC19606 [7] | Synergistic activity (FIC value) ATCC25922 [8] |
| --- | --- | --- | --- | --- | --- | --- | --- | --- |
| CCc1[nH]c(N=C(N)N)nc1-c1cccc2c(C)cccc12 [Compound I-60] | 256 | 256 | 256 | 256 | 0.31 | 0.31 | 0.12 | 0.38 |
| Cc1cc(C)c2c(-c3csc(N=C(N)N)n3)cccc2c1 [Compound I-61] | 256 | 256 | 256 | 256 | 0.56 | 0.63 | 0.75 | 0.5 |
| NC(N)=Nc1nc(-c2cccc3cccc(Cl)c23)c(Cl)s1 [Compound I-62] | 64 | 128 | 256 | 128 | 1.25 | 0.52 | 0.52 | 0.63 |
| Cc1oc(N=C(N)N)nc1-c1cccc2ccc(Cl)cc12 [Compound I-63] | 256 | 256 | 256 | 256 | 0.63 | 0.38 | 0.75 | 0.5 |
| NC(N)=Nc1nc(-c2cccc3cc(Cl)ccc23)co1 [Compound I-64] | 256 | 256 | 256 | 256 | 1.25 | 0.52 | 0.52 | 0.63 |
| NC(N)=Nc1nc(-c2cccc3c(Cl)cccc23)c[nH]1 [Compound I-65] | 256 | 256 | 256 | 256 | 1.25 | 1.25 | 0.5 | 1.25 |
| NC(N)=Nc1nc(-c2cccc3cc(Cl)cc(Cl)c23)c(Br)s1 [Compound I-66] | 256 | 256 | 256 | 256 | 0.53 | 0.31 | 0.13 | 0.38 |
| NC(N)=Nc1nc(-c2cccc3cccnc23)co1 [Compound I-67] | 256 | 256 | 256 | 256 | 1.25 | 1.25 | 0.5 | 0.63 |
| NC(N)=Nc1nc(-c2ccc3cccnc3c2)cs1 [Compound I-68] | 256 | 256 | 256 | 256 | 1.25 | 1.25 | 0.51 | 1.25 |
| NC(N)=Nc1nc(-c2cccc3ccsc23)c[nH]1 [Compound I-69] | 256 | 256 | 256 | 256 | 0.51 | 1.25 | 1.25 | 1.25 |
| Cc1sc(N=C(N)N)nc1-c1cccc2ccoc12 [Compound I-70] | 256 | 256 | 256 | 256 | 1.25 | 1.25 | 0.26 | 1.25 |
| NC(N)=Nc1nc(-c2cccc3ncsc23)co1 [Compound I-71] | 256 | 256 | 256 | 256 | 1.25 | 0.19 | 0.13 | 0.52 |

From patent US20260250257A1, “ANTIBACTERIAL AND SYNERGISTIC ACTIVE COMPOUND AND USE THEREOF” (EAST CHINA UNIVERSITY OF SCIENCE AND TECHNOLOGY, priority 2023, published 2026)
